One data set has as its system DLD-1. In words: Induction of apoptosis in human DLD1 cells assessed as caspase activation after 48 hrs. Type of data set: functional, cell-based. As to conditions: DLD-1, 48 h.
Another data set deals with NCI-H1299. In words: Induction of apoptosis in human H1299 cells assessed as caspase activation after 48 hrs. Type of data set: functional, cell-based. The following applies: NCI-H1299, 48 h.
Data set [1] relates to T47D. In words: Induction of apoptosis in human T47D cells assessed as caspase activation after 48 hrs. Type of data set: functional, cell-based.
Data set [2] in a line: Aqueous solubility in dextrose 5% in water. Type of data set: physicochemical.
A short description of data set [3]: Solubility in ethanol/cremophor EL/D5W solution. Type of data set: physicochemical.
Data set [4] in a line: Growth inhibition of human H1299 cells after 48 hrs. Type of data set: functional. The following applies: NCI-H1299, 48 h.
Data set [5] relates to T47D. In words: Growth inhibition of human T47D cells after 48 hrs. Type of data set: functional.
The nature of data set [6]: Solubility in DMSO/ethanol/cremophor EL/D5W solution. Type of data set: physicochemical.
The next data set deals with Mus musculus. The experiment in a line: Toxicity in Crl:Nu/Nu-nuBR mouse assessed as decrease of body weight at 20 mg/kg, iv daily once for day 1 to 5 and 8 to 12. Type of data set: organism-based. More on the design: dose 20 mg/kg, route intravenous; scale not given: the % may be the effect or the level left. The following applies: in vivo.
The subject of another data set is MX1. In words: Antitumor activity against human MX1 cells xenografted in Crl:Nu/Nu-nuBR mouse assessed as inhibition of tumor growth at 20 mg/kg, iv daily once for day 1 to 5 and 8 to 12. Type of data set: functional, organism-based. More on the design: dose 20 mg/kg. For orientation: A xenograft is tissue or cells of one species grown in another, often human tumour cells in immunodeficient mice.

The structures appear in SMILES notation. Values after ≈ are worked out from the molar mass of the structure shown. Active and inactive are the calls of the source. The rule behind the calls is not given here.

Broadly, the EC50 is the concentration at which the effect is half-maximal. For orientation: solubility means how much of the substance goes into solution per volume. In general, GI50 refers to the concentration giving 50% growth inhibition.

In the case of `CN(C)c1cc(-c2noc(-c3sccc3Cl)n2)ccc1Cl`, the half-maximal effective concentration (EC50) is 540 nM in the data set on DLD-1, over 10 µM in the data set with NCI-H1299 and 2100 nM in the data set with T47D [1].

`O=P([O-])([O-])OCc1cc(Cl)ccc1-c1noc(-c2occc2Br)n1.[Na+].[Na+]` showed a solubility in data set [2] of 10000 µg/mL.

Consider `Nc1cc(Cl)ccc1-c1noc(-c2sccc2Cl)n1`, for which the 50% effective concentration (EC50) with DLD-1 is 1100 nM; with NCI-H1299, over 10 µM; in the data set on T47D [1], 3100 nM.

Consider `O=P(O)(O)OCc1cc(Cl)ccc1-c1noc(-c2occc2Br)n1`, for which the results for the EC50 with NCI-H1299 and in the data set on T47D [1] were over 10 µM and over 10000 nM, respectively.

On to `Cc1cc(Cl)cnc1-c1noc(-c2occc2Br)n1`, for which the EC50 is 1200 nM in the data set with DLD-1, over 10 µM in the data set with NCI-H1299 and 940 nM in the data set on T47D [1]. The concentration in solution in data set [3] (solubility) was 3800 µg/mL (≈ 11.2 mM). For the same compound, the values for the concentration for 50% growth inhibition (GI50) (in [4]; in the data set on T47D [5]) were over 10 µM and 660 nM, respectively.

With `Cc1cc(Cl)ccc1-c1noc(-c2sccc2Cl)n1`, the results for the concentration for a half-maximal effect (EC50) with DLD-1, in the data set on NCI-H1299 and in the data set with T47D [1] were 380 nM, over 10 µM and 910 nM, respectively.

`Clc1ccc(-c2noc(-c3sccc3Cl)n2)cc1`: the EC50 in the data set with DLD-1 is 440 nM; with NCI-H1299, over 10 µM; with T47D [1] it was 1200 nM. Also, the GI50 in [4] was over 10 µM; in the data set on T47D [5] it was 190 nM.

For `CC[C@]1(O)C[C@@H]2CN(CCc3c([nH]c4ccccc34)[C@@](C(=O)OC)(c3cc4c(cc3OC)N(C)[C@H]3[C@@](O)(C(=O)OC)[C@H](OC(C)=O)[C@]5(CC)C=CCN6CC[C@]43[C@@H]65)C2)C1` [VINBLASTINE], the concentration for a half-maximal effect (EC50) is 160 nM with DLD-1 and 0.082 µM with NCI-H1299.

As to `Clc1ccc(-c2noc(-c3sccc3Cl)n2)c(CBr)c1`, the concentration for a half-maximal effect (EC50) in the data set on DLD-1 came to 1100 nM; in the data set with NCI-H1299 it was 8.6 µM; in the data set with T47D [1], 4500 nM.

In the case of `Nc1cc(-c2noc(-c3sccc3Cl)n2)ccc1Cl`, the concentration for a half-maximal effect (EC50) is 580 nM in the data set on DLD-1, over 10 µM in the data set on NCI-H1299 and 2400 nM in the data set with T47D [1].

With `CC(=O)O[C@H]1C(=O)[C@@]2(C)[C@H]([C@H](OC(=O)c3ccccc3)[C@]3(O)C[C@H](OC(=O)[C@H](O)[C@@H](NC(=O)c4ccccc4)c4ccccc4)C(C)=C1C3(C)C)[C@]1(OC(C)=O)CO[C@@H]1C[C@@H]2O` [PACLITAXEL], the 50% effective concentration (EC50) with DLD-1 amounted to 54 nM; in the data set on NCI-H1299, 0.098 µM. Besides, the GI50 in [4] was 0.023 µM; in the data set on T47D [5] it was 26 nM.

Turning to `Clc1ccc(-c2noc(-c3sccc3Cl)n2)cc1Cl`, the half-maximal effective concentration (EC50) was 370 nM in the data set on DLD-1, over 10 µM in the data set on NCI-H1299 and 1400 nM in the data set on T47D [1].

Take `Cc1cc(Cl)ccc1-c1noc(-c2occc2Br)n1`: the EC50 was 710 nM in the data set with DLD-1, over 10 µM in the data set with NCI-H1299 and 1100 nM in the data set on T47D [1]. This compound also yielded a solubility in [6] of 4800 µg/mL (≈ 14.1 mM). Further, the Activity with Mus musculus is on record as under 10%. Besides, the GI50 in data set [4] is over 10 µM; in the data set on T47D [5] it was 130 nM. Besides, in the data set with MX1, the inhibition entry is “Active”.

`OCc1cc(Cl)ccc1-c1noc(-c2occc2Br)n1`: the solubility in [3] worked out at 4000 µg/mL (≈ 11.2 mM). Moreover, the EC50 with NCI-H1299 was over 10 µM; in the data set with T47D [1] it was 2900 nM. The figures for the 50% growth inhibitory concentration (GI50) (in data set [4]; with T47D [5]) were over 10 µM and 500 nM, respectively.

As to `Cc1cc(-c2noc(-c3sccc3Cl)n2)ccc1Cl`, the EC50 with DLD-1 is 590 nM; with NCI-H1299, over 10 µM; in the data set on T47D [1], 1700 nM.

With `Clc1ccc(-c2noc(-c3occc3Br)n2)c(CBr)c1`, the EC50 in the data set on NCI-H1299 was 2.3 µM; in the data set with T47D [1] it was 2200 nM.

On to `CN(C)CCNc1cc(-c2noc(-c3sccc3Cl)n2)ccc1Cl`, for which the EC50 in the data set on DLD-1 is over 10000 nM; with NCI-H1299, over 10 µM; with T47D [1], over 10000 nM.

Take `COc1cc2c(c(OC)c1OC)-c1ccc(OC)c(=O)cc1[C@@H](NC(C)=O)CC2` [COLCHICINE]: in the data set on DLD-1, the EC50 is 180 nM. Besides, the concentration for 50% growth inhibition (GI50) in [4] is 0.063 µM; with T47D [5], 140 nM.

Source of the values: ChEMBL document CHEMBL1152348, “Discovery of 3-aryl-5-aryl-1,2,4-oxadiazoles as a new series of apoptosis inducers. 2. Identification of more aqueous soluble analogs as potential anticancer agents” (Bioorg Med Chem Lett, 2009).
